Patent publication US20220409570A1, “COMPOSITION OF N-PALMITOYL-ETHANOLAMIDE AND BAICALEIN IN CO-MICRONIZED FORM” (EPITECH GROUP S.P.A., priority 2021, published 2022)

Key:
Assay type in all cases: in vivo, Male Sprangue Dawley rats
DHT = assay: Serum DHT levels (ELISA) in rats with testosterone propionate-induced BPH; conditions: per os daily for 14 days, co-micronized PEA-Baicalein 10 mg/kg (9:1), um-PEA 9 mg/kg, Baicalein 1 mg/kg, vs BPH+vehicle, FIG. 2A
Excerpt: (§1) Male Sprangue Dawley rats (200-250 gr, Envigo, Italy) fed ad libitum and housed in cages with controlled sleep/wake cycle were used for the in vivo experimentation. Before the start of the experimentation, the animals were subjected to an acclimatization period of one week considering all the experimental procedures and protocols, compliant with the principles of care and welfare of laboratory animals approved by the Italian Ministry of Health and European directives (Italian Legislative Decree 2014/26 and EU Directive 2010/63) and by the OPBA of the University of Messina. […]
(§2) The animals were euthanized 14 days after the start of the experimentation. […] Specifically, the DHT levels were analyzed in the plasma samples with the commercially available Enzyme-linked Immunosorbent Assay (ELISA) (My BioSource). The samples were dosed with the microplate reader and the absorbance was read spectrophotometrically at 450 nm. […] The protein expression was quantified by densitometry (BIORAD ChemiDoc™ XRS+software) and normalized to the housekeeping gene β-actin.

AR = assay: Western blot of AR in prostate tissue of BPH rats; conditions: per os daily for 14 days, co-micronized PEA-Baicalein 10 mg/kg, um-PEA 9 mg/kg, Baicalein 1 mg/kg, vs BPH+vehicle, FIG. 2C
Excerpt: as §1, §2

PSA = assay: Western blot of PSA in prostate tissue of BPH rats; conditions: per os daily for 14 days, co-micronized PEA-Baicalein 10 mg/kg, um-PEA 9 mg/kg, Baicalein 1 mg/kg, vs BPH+vehicle, FIG. 2D
Excerpt: as §1, §2

Bcl-2 = assay: Western blot of anti-apoptotic factor Bcl-2 in prostate tissue of BPH rats; conditions: per os daily for 14 days, co-micronized PEA-Baicalein 10 mg/kg, um-PEA 9 mg/kg, Baicalein 1 mg/kg, vs BPH+vehicle, FIG. 3B
Excerpt: as §1, §2

Bax = assay: Western blot of pro-apoptotic factor Bax in prostate tissue of BPH rats; conditions: per os daily for 14 days, co-micronized PEA-Baicalein 10 mg/kg, um-PEA 9 mg/kg, Baicalein 1 mg/kg, vs BPH+vehicle, FIG. 3C
Excerpt: as §1, §2

5α-red 2 = assay: Western blot of 5α-red 2 in prostate tissue of BPH rats; conditions: per os daily for 14 days, co-micronized PEA-Baicalein 10 mg/kg, um-PEA 9 mg/kg, Baicalein 1 mg/kg, normalized to β-actin, FIG. 2B
Excerpt: as §1, §2

[1] = test system: testosterone propionate-induced BPH (Benign Prostatic Hyperplasia); assay: Weight of the prostate in BPH rats; conditions: per os daily for 14 days, co-micronized PEA-Baicalein 10 mg/kg, um-PEA 9 mg/kg, FIG. 3A
Excerpt: as §1, §2

## O=c1cc(-c2ccccc2)oc2cc(O)c(O)c(O)c12 [Baicalein, 5,6,7-trihydroxyflavone]
DHT
  Serum levels of DHT: markedly elevated
AR
  Expression (tissue levels) of AR (WB densitometry): did not bring significant changes
PSA
  Expression (tissue levels) of PSA (WB densitometry): did not bring significant changes
Bcl-2
  Levels of the anti-apoptotic factor Bcl-2 (WB densitometry): did not show a statistically significant change
Bax
  Expression of the pro-apoptotic factor Bax (WB densitometry): did not show a statistically significant change
5α-red 2
  Expression of the 5α-red 2 protein in prostate tissue (WB densitometry): not capable of reducing the expression of such an enzyme

## CCCCCCCCCCCCCCCC(=O)NCCO [um-PEA, Palmitoylethanolamide]
DHT
  Serum levels of DHT: more than the um-PEA (9 mg/kg), significantly reduces serum DHT
[1]
  Weight of the prostate: progressive decrease in prostate weight
PSA
  Expression (tissue levels) of PSA (WB densitometry): significantly greater and clearer effect, with respect to um-PEA alone
Bcl-2
  Levels of the anti-apoptotic factor Bcl-2 (WB densitometry): decidedly minor effect and with lower statistical significance
Bax
  Expression of the pro-apoptotic factor Bax (WB densitometry): decidedly minor effect and with lower statistical significance
5α-red 2
  Expression of the 5α-red 2 protein in prostate tissue (WB densitometry): more than the um-PEA alone at 9 mg/kg, significantly reduces the expression of the enzyme 5α-red 2
